Source: US9205130B2, “Orally administrable pharmaceutical pellet of epidermal growth factor” (CENTRO DE INGENIERIA GENETICA Y BIOTECNOLOGIA, priority 2010, dated 2015)

System: 3T3 A31 cells
Assay: Biological activity: induction of proliferation of 3T3 A31 cells, crystal violet
Assay type: cell-based, mouse
Conditions: before being formulated in form of capsule
Protocol: The activity of epidermal growth factor in capsules of example 1 packaged in blisters and stored at temperatures of 5±3° C. were tested. This biological test is based on the capacity of the epidermal growth factor human recombinant (EGF Hu-r) to induce the proliferation of cell lines of mouse embryos of 3T3/A3 which are extremely sensitive to contact inhibition cell division.
For determining the capability of induction of cell proliferation of EGF and its duration, the method comprises the quantification of the absorption of colorant crystal violet by the living cells 3T3 A31.
The preparation of samples of EGF comprises the addition of 100 ml of phosphate saline buffer (PBS1×) to the content of 10 capsules of Example 1, maintaining agitation for 15 minutes. The resultant suspension was centrifuged for 5 minutes at 9000 rpm and the aqueous solution was collected.
Cells 3T3 A31 in 96-plates at a concentration of 1.5×10^5 cells/mL were sown. These plates were incubated at 37° C., 5% CO2 and 95% humidity for 24 hours.
After completing the incubation time, cells were washed twice with 100 μl of PBS1× and then 100 μl of DMEM 1× without fetal bovine serum (SFB) was added to the medium and plates were incubated at 37° C., 5% CO2 and 95% humidity for another 24 hours. […]

Q: With “epidermal growth factor [epidermal growth factor human recombinant, before being formulated in form of capsule]” as the substance, how does the “Reference biological activity of EGF” value read?
A: The value was 2×10^6 UI/mg.
